According to ChEMBL document CHEMBL5055643, “Sophoraflavanone G Resensitizes ABCG2-Overexpressing Multidrug-Resistant Non-Small-Cell Lung Cancer Cells to Chemotherapeutic Drugs” (J Nat Prod, 2021):

How the values were obtained:
[1] = system: NCI/ADR-RES; experiment: Chemo-sensitizing activity against ABCB1-overexpressing human NCI/ADR-RES cells assessed as reversal fold at 2 uM measured after 72 hrs in presence of paclitaxel by CCK8 assay relative to control; type: functional
[2] = system: KB 3-1; experiment: Chemo-sensitizing activity against human KB 3-1 cells assessed as reversal fold at 1 uM measured after 72 hrs in presence of vincristine by CCK8 assay relative to control; type: functional
[3] = system: OVCAR-8; experiment: Chemo-sensitizing activity against human OVCAR-8 cells assessed as reversal fold at 1 uM measured after 72 hrs in presence of colchicine by CCK8 assay relative to control; type: functional
[4] = system: HEK293; experiment: Chemo-sensitizing activity against ABCG2-overexpressing human HEK293/482R cells assessed as reversal fold at 1 uM measured after 72 hrs in presence of SN-38 by CCK8 assay relative to control; type: functional
[5] = system: NCI-H460; experiment: Cytotoxicity against human NCI-H460 cells assessed as reduction in cell viability measured after 72 hrs by CCK8 assay; type: cell-based; details: NCI-H460, 72 h
[6] = system: HEK293; experiment: Chemo-sensitizing activity against ABCG2-overexpressing human HEK293/482R cells assessed as reversal fold at 1 uM measured after 72 hrs in presence of mitoxatrone by CCK8 assay relative to control; type: functional
[7] = system: KB 3-1; experiment: Chemo-sensitizing activity against human KB 3-1 cells assessed as reversal fold at 5 uM measured after 72 hrs in presence of paclitaxel by CCK8 assay relative to control; type: functional
[8] = system: A549; experiment: Chemo-sensitizing activity against human A549 cells assessed as reversal fold at 5 uM measured after 72 hrs in presence of SN-38 by CCK8 assay relative to control; type: functional
[9] = system: NCI-H460; experiment: Chemo-sensitizing activity against mitoxantrone-selected ABCG2-overexpressing human NCI-H460/MX20 cells assessed as reversal fold at 2 uM measured after 72 hrs in presence of topotecan by CCK8 assay relative to control; type: functional
[10] = Cytotoxicity against human HEK293 cells assessed as cell viability at 1 to 5 uM measured after 72 hrs by CCK8 assay; type: cell-based; details: dose 1-5 µM, read-out: Activity
[11] = system: OVCAR-8; experiment: Chemo-sensitizing activity against human OVCAR-8 cells assessed as reversal fold at 5 uM measured after 72 hrs in presence of paclitaxel by CCK8 assay relative to control; type: functional
[12] = system: HEK293; experiment: Chemo-sensitizing activity against ABCG2-overexpressing human HEK293/482R cells assessed as reversal fold at 5 uM measured after 72 hrs in presence of mitoxatrone by CCK8 assay relative to control; type: functional
[13] = system: NCI-H460; experiment: Chemo-sensitizing activity against mitoxantrone-selected ABCG2-overexpressing human NCI-H460/MX20 cells assessed as reversal fold at 2 uM measured after 72 hrs in presence of mitoxantrone by CCK8 assay relative to control; type: functional
[14] = system: OVCAR-8; experiment: Chemo-sensitizing activity against human OVCAR-8 cells assessed as reversal fold at 1 uM measured after 72 hrs in presence of paclitaxel by CCK8 assay relative to control; type: functional
[15] = Cytotoxicity against ABCG2-overexpressing human HEK293/482R cells assessed as cell viability at 1 to 5 uM measured after 72 hrs by CCK8 assay; type: ADME, cell-based; details: ABCG2-overexpressing HEK293/482R cells, dose 1-5 µM, read-out: Activity
[16] = system: ABCG2; experiment: Resistance factor, ratio of IC50 for mitoxantrone-selected ABCG2-overexpressing human NCI-H460/MX20 cells to IC50 for human NCI-H460 cells; type: ADME; details: read-out: Ratio IC50
[17] = system: A549; experiment: Chemo-sensitizing activity against becatecarin-selected ABCG2-overexpressing human A549/Bec150 cells assessed as reversal fold at 5 uM measured after 72 hrs in presence of SN-38 by CCK8 assay relative to control; type: functional
[18] = system: HEK293; experiment: Chemo-sensitizing activity against ABCG2-overexpressing human HEK293 cells assessed as reversal fold at 1 uM measured after 72 hrs in presence of topotecan by CCK8 assay relative to control; type: functional
[19] = system: NCI/ADR-RES; experiment: Chemo-sensitizing activity against ABCB1-overexpressing human NCI/ADR-RES cells assessed as reversal fold at 1 uM measured after 72 hrs in presence of vincristine by CCK8 assay relative to control; type: functional
[20] = system: HEK293; experiment: Chemo-sensitizing activity against human HEK293 cells assessed as reversal fold at 5 uM measured after 72 hrs in presence of paclitaxel by CCK8 assay relative to control; type: functional
[21] = system: KB 3-1; experiment: Chemo-sensitizing activity against human KB 3-1 cells assessed as reversal fold at 2 uM measured after 72 hrs in presence of colchicine by CCK8 assay relative to control; type: functional
[22] = system: A549; experiment: Chemo-sensitizing activity against human A549 cells assessed as reversal fold at 2 uM measured after 72 hrs in presence of topotecan by CCK8 assay relative to control; type: functional
[23] = target: T1, Broad substrate specificity ATP-binding cassette transporter ABCG2 (Homo sapiens, UniProt Q9UNQ0); experiment: Inhibition of ABCG2 in becatecarin-selected ABCG2-overexpressing human A549/Bec150 cells assessed as increase in intracellular mitoxantrone accumulation incubated for 1 hr in presence of mitoxantrone by flow cytometry; type: cell-based
T1 sequence (Q9UNQ0 whole entry): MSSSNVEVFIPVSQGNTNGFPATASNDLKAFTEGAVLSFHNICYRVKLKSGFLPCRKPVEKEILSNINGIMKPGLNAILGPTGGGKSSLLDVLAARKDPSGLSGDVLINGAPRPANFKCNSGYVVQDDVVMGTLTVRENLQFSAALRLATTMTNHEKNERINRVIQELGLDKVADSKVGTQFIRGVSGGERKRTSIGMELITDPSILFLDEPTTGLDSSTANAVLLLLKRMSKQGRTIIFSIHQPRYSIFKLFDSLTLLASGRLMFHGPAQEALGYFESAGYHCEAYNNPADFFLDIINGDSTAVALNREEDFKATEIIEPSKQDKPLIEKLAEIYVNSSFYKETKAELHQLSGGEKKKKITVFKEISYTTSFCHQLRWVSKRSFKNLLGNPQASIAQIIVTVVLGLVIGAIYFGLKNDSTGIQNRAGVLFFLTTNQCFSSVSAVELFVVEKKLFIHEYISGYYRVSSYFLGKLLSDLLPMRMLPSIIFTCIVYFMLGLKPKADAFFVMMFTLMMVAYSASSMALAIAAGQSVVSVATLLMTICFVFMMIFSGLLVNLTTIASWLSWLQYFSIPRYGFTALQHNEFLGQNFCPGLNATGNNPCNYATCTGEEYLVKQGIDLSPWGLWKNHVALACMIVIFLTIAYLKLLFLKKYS

[24] = system: HEK293; experiment: Chemo-sensitizing activity against human HEK293 cells assessed as reversal fold at 1 uM measured after 72 hrs in presence of SN-38 by CCK8 assay relative to control; type: functional
[25] = system: HEK293; experiment: Chemo-sensitizing activity against ABCB1-overexpressing human HEK293/MDR19 cells assessed as reversal fold at 5 uM measured after 72 hrs in presence of colchicine by CCK8 assay relative to control; type: functional
[26] = system: KB 3-1; experiment: Chemo-sensitizing activity against human KB 3-1 cells assessed as reversal fold at 2 uM measured after 72 hrs in presence of vincristine by CCK8 assay relative to control; type: functional

With `C=C(C)[C@H](CC=C(C)C)Cc1c(O)cc(O)c2c1O[C@H](c1ccc(O)cc1O)CC2=O` [SOPHORAFLAVANONE G] the “fold change (FC)” value [1] was 1.1, the “fold change (FC)” value [2] was 1.1 and the “fold change (FC)” value [3] was 1. The “fold change (FC)” value [4] was 2.1, the IC50 [5] was 29.3 µM and the “fold change (FC)” value [6] was 2.6. The “fold change (FC)” value [7] was 1.1, the “fold change (FC)” value [8] was 1.2 and the “fold change (FC)” value [9] was 7.2. The viability at 72 h, 5 µM [10] was > 90%, the “fold change (FC)” value [11] was 1.1 and the “fold change (FC)” value [12] was 5.6. The “fold change (FC)” value [13] was 2.7, the “fold change (FC)” value [14] was 0.8 and the viability at 72 h, up to 5 µM [15] was > 90%. The selectivity ratio [16] was 0.8, the “fold change (FC)” value [17] was 7.7 and the “fold change (FC)” value [18] was 1.7. For the same compound, the “fold change (FC)” value [19] was 1, the “fold change (FC)” value [20] was 1.2 and the “fold change (FC)” value [21] was 1.1. For the same compound, the “fold change (FC)” value [22] was 1.2, the IC50 [23] was 2.29 µM and the “inhibition (INH)” value ([23]; human, a549, 1 h, time 1 hrs) was “Dose-dependent effect”. For the same compound, the “fold change (FC)” value [24] was 1, the “fold change (FC)” value [25] was 0.6 and the “fold change (FC)” value [26] was 1.2.
